From article PMC9440883, “A new source of bacterial myrosinase isolated from endophytic Bacillus sp. NGB-B10, and its relevance in biological control activity” (World Journal of Microbiology & Biotechnology, 2022)

Tested on: myrosinase (bglA, 6-phospho-β-glucosidase, GH1)
Test: initial rates, Lineweaver-Burk plot
Format: biochemical, Bacillus sp. NGB-B10
Conditions: 0.05 M phosphate buffer pH 7.0; 1-20 mM sinigrin; partially purified enzyme

Km: 2500 µM
SMILES: C=CC/C(=N/OS(=O)(=O)O)S[C@@H]1O[C@H](CO)[C@@H](O)[C@H](O)[C@H]1O [sinigrin]
